Assay results reported in PMC11784183, “Identification of an antibiotic from an HTS targeting EF-Tu:tRNA interaction: a prospective topical treatment for MRSA skin infections” (Applied and Environmental Microbiology, 2024).
Converted amounts (≈) assume the structure as drawn. Like-named read-outs stand apart in the source and are kept apart here.

Columns and labels:
S. aureus USA300 = details: 15 µM, 0-4 h
Description: S. aureus USA300 was inoculated 1:100 into LB medium from overnight cultures. Cells were grown to the early exponential phase and back diluted to OD600 0.1. […] Samples were serially diluted and plated on LB agar. Colonies were enumerated after overnight incubation at 37°C. Time-kill experiments were performed with n = 4 biological replicates.

[1] = system: M. tuberculosis H37Rv (ATTC 27294); test: Drug susceptibility assay (96-well, MIC); assay type: cell-based; details: Mycobacterium tuberculosis, Acid-fast
Staphylococcus aureus = test: MIC testing by broth microdilution; assay type: cell-based
[2] = system: P. aeruginosa (ATCC BAA47); test: Drug susceptibility assay (96-well, MIC); assay type: cell-based; details: Pseudomonas aeruginosa, ATCCBAA47; Gram-negative
[3] = system: A. baumannii (ATCC 17988); test: Drug susceptibility assay (96-well, MIC); assay type: cell-based; details: Acinetobacter baumannii, ATCC17988; Gram-negative
[4] = system: ribosomal translation in vitro (PURExpress); test: Purified in vitro translation assay (PURExpress); assay type: biochemical; details: highest concentration tested
Text: (A) Coomassie blue staining of sodium dodecyl sulfate polyacrylamide gel electrophoresis (SDS-PAGE) following in vitro translation with the PURExpress translation kit (New England Biolabs). The protein synthesized (Dihydrofolate reductase) in the reaction is shown in the small rectangles superimposed on the gel. (B) Quantification using a BioRad gel scanner and software provided with this scanner.
PURExpress in vitro purified ribosomal translation kit (New England Biolabs) was used. Biochemical protocols used were as described by the manufacturer.

S. lentus = test: MIC testing by broth microdilution; assay type: cell-based
[5] = system: S. aureus USA300 subcutaneous infection; test: Mouse skin infection model, topical ointment; assay type: in vivo, mice; details: topical ointment daily; for dermonecrosis as a result of S. aureus infection (area over time): 5 days, vs untreated control (ointment without drug); for bacterial burden in punch biopsies: day 5, vs untreated control
S. haemolyticus = test: MIC testing by broth microdilution; assay type: cell-based; details: Staphylococcus haemolyticus; BK strain 21148
[6] = mouse, in vivo, ip, 10 mg/kg
S. warneri = test: MIC testing by broth microdilution; assay type: cell-based
S. simulans = test: MIC testing by broth microdilution; assay type: cell-based; details: Staphylococcus simulans; BK strain 26201
[7] = system: non-aureus staphylococcal strains (14 species); test: MIC testing by broth microdilution, panel of non-aureus staphylococcal strains; assay type: cell-based, Staphylococcus spp.; details: Staphylococcus; for 18 of 23 other Staphylococcal strains; read-out: MIC90 and MIC50
S. gallinarum = test: MIC testing by broth microdilution; assay type: cell-based; details: BK strain 26189
S. cohnii = test: MIC testing by broth microdilution; assay type: cell-based; details: Staphylococcus cohnii; BK strain 22939
ERβ receptor = system: ERβ receptor; design: method as in PMID 9927308; details: cited from earlier work
[8] = assay type: in vitro ADME, rat
Description: (§1) Briefly, each reaction mixture (110 µL) consisted of a test article (1 µM), mix gender human, male Sprague Dawley rat or male CD-1 mouse microsomal fractions (0.5 mg/mL), and NADPH regenerating system in phosphate buffer at pH 7.4. Samples were incubated in 384-well plates at 37°C for 0, 5, 10, 15, 30, and 60 min. Sample analysis and half-life calculations were performed using a previously described method ([22]). The three controls used were Buspirone (short half-life), Loperamide (moderate half-life), and Antipyrine (long half-life).
(§2) Categories were defined as follows: unstable, t1/2 < 30 min; stable, t1/2 > 30 min.

S. caprae = test: MIC testing by broth microdilution; assay type: cell-based; details: BK strain 22945
[9] = male, C57B6, mouse, in vivo, ip, 10 mg/kg, 7 h
E. coli = test: Inhibition of bacterial growth; assay type: cell-based; details: not shown
Description: (§3) Strains and reagents were the same as in the zone-inhibition assay (above). […] The culture was diluted again 1/500 in 1 mL of fresh media with the presence of increasing concentrations of tested compound or 1% DMSO as a control.

S. pseudintermedius = test: MIC testing by broth microdilution; assay type: cell-based
S. saprophyticus = test: MIC testing by broth microdilution; assay type: cell-based
S. aureus = test: Drug susceptibility assay (96-well, MIC); assay type: cell-based; details: Staphylococcus aureus
S. sciuri = test: MIC testing by broth microdilution; assay type: cell-based
B. subtilis = test: Inhibition of bacterial growth in liquid culture; assay type: cell-based; details: Bacillus subtilis
Description: as §3

S. xylosus = test: MIC testing by broth microdilution; assay type: cell-based; details: Staphylococcus xylosus; BK strain 26203
[10] = system: K. pneumoniae (ATCC 43816); test: Drug susceptibility assay (96-well, MIC); assay type: cell-based; details: Klebsiella pneumoniae, ATCC43816; Gram-negative
S. lugdunensis = test: MIC testing by broth microdilution; assay type: cell-based
S. epidermidis = test: MIC testing by broth microdilution; assay type: cell-based
S. capitis = test: MIC testing by broth microdilution; assay type: cell-based; details: Staphylococcus capitis
in vivo = details: male, C57B6, mouse, ip, 10 mg/kg
[11] = assay type: in vitro ADME, human
Description: as §1, §2

Description for Vero cells (ATCC CCL-81): Compounds were tested for cytotoxicity against Vero cells using the CellTiter 96 AQueous One Solution Assay kit (Promega). Vero cells were seeded in 96-well plates at a density of 2 × 10^4 cells per well, and the plates were incubated for 4 h at 37°C to allow attachments of the Vero cells. Chemical compounds being tested were then added to the wells starting from a final concentration of 50 µg/mL and making 12 1:2 dilutions. Cells were incubated for 72 h at 37°C, after which 20 µL of freshly prepared MTS:PMS reagents were added to each well. Plates were incubated for 2 h and then read at an absorbance of 490 nm.

CC[C@@H]1Cc2cc(O)ccc2C2=C1c1ccc(O)cc1C[C@H]2CC [MGC-10]
bactericidal test (CFU/mL over time) (S. aureus USA300): notable bactericidal activity
MIC [1]: 100 µM (≈ 32 µg/mL)
cytotoxicity against Vero mammalian cells (Vero cells (ATCC CCL-81)): no cytotoxicity
MIC (cytotoxicity, Vero) (Vero cells (ATCC CCL-81); African green monkey, 72 h): 50 µM (≈ 16 µg/mL)
MIC (Staphylococcus aureus; MRSA / USA300, BK strain 19494, CC 8, USA300, MRSA): 6 µM (≈ 1.92 µg/mL)
MIC (Staphylococcus aureus; MRSA / USA300 / USA500, MRSA clinical isolates typed as USA300 and USA500): 6 µM (≈ 1.92 µg/mL)
MIC (Staphylococcus aureus; MRSA / USA400, BK strain 19484, CC 1, USA400, MRSA): 6 µM (≈ 1.92 µg/mL)
MIC (Staphylococcus aureus; MRSA / USA600, BK strain 18519, CC 45, USA600, MRSA): 6 µM (≈ 1.92 µg/mL)
MIC (Staphylococcus aureus; MRSA / USA800, BK strain 18267, CC 5, USA800, MRSA): 6 µM (≈ 1.92 µg/mL)
MIC (Staphylococcus aureus; MRSA, BK strain 13180, CC 8, Trimethoprim-sulfamethoxazole resistant): 6 µM (≈ 1.92 µg/mL)
MIC (Staphylococcus aureus; MRSA, BK strain 21209, CC 8, Linezolid resistant): 6 µM (≈ 1.92 µg/mL)
MIC (Staphylococcus aureus; MRSA, BK strain 21346, CC 5, Tigecycline resistant): 6 µM (≈ 1.92 µg/mL)
MIC (Staphylococcus aureus; MRSA, BK strain 21347, CC 22, Linezolid resistant): 6 µM (≈ 1.92 µg/mL)
MIC (Staphylococcus aureus; MRSA, BK strain 22522, CC 5, Vancomycin resistant (vanA+), MRSA): 6 µM (≈ 1.92 µg/mL)
MIC (Staphylococcus aureus; MRSA, BK strain 22523, CC 5, Vancomycin resistant (vanA+), MRSA): 6 µM (≈ 1.92 µg/mL)
MIC (Staphylococcus aureus; MRSA, BK strain 23735, CC 125, BORSA): 6 µM (≈ 1.92 µg/mL)
MIC (Staphylococcus aureus; MRSA, BK strain 23736, CC 1, BORSA): 6 µM (≈ 1.92 µg/mL)
MIC (Staphylococcus aureus; MRSA, BK strain 26638, CC 398, LA-MRSA): 6 µM (≈ 1.92 µg/mL)
MIC (Staphylococcus aureus; MRSA, BK strain 46376, CC 8, hVISA): 6 µM (≈ 1.92 µg/mL)
MIC (Staphylococcus aureus; MRSA, BK strain 46377, CC 8, hVISA): 6 µM (≈ 1.92 µg/mL)
MIC (Staphylococcus aureus; MRSA, BK strain 58711, CC 5, Rifampin resistant): 6 µM (≈ 1.92 µg/mL)
MIC (Staphylococcus aureus; MRSA, BK strain 59775, CC 8, Trimethoprim-sulfamethoxazole resistant): 6 µM (≈ 1.92 µg/mL)
MIC (Staphylococcus aureus; MRSA, BK strain 61828, CC 398, MRSA): 6 µM (≈ 1.92 µg/mL)
MIC (Staphylococcus aureus; MRSA, BK strain 62861, CC 45, MRSA): 6 µM (≈ 1.92 µg/mL)
MIC (Staphylococcus aureus; MRSA, BK strain 62874, CC 59, MRSA): 6 µM (≈ 1.92 µg/mL)
MIC (Staphylococcus aureus; MRSA, BK strain 62961, CC 5, MRSA): 6 µM (≈ 1.92 µg/mL)
MIC (Staphylococcus aureus; MRSA, BK strain 62969, CC 5, MRSA): 6 µM (≈ 1.92 µg/mL)
MIC (Staphylococcus aureus; MRSA, BK strain 62976, CC 398, MRSA): 6 µM (≈ 1.92 µg/mL)
MIC (Staphylococcus aureus; MRSA, BK strain 63193, CC 30, MRSA): 6 µM (≈ 1.92 µg/mL)
MIC (Staphylococcus aureus; MRSA, BK strain 63218, CC 8, MRSA): 6 µM (≈ 1.92 µg/mL)
MIC (Staphylococcus aureus; MRSA, BK strain 63341, CC 8, MRSA): 6 µM (≈ 1.92 µg/mL)
MIC (Staphylococcus aureus; MRSA, BK strain 63738, CC 59, MRSA): 6 µM (≈ 1.92 µg/mL)
MIC (Staphylococcus aureus; MRSA, BK strain 63765, CC 30, MRSA): 12 µM (≈ 3.85 µg/mL)
MIC (Staphylococcus aureus; MRSA, BK strain 63776, CC 398, MRSA): 6 µM (≈ 1.92 µg/mL)
MIC (Staphylococcus aureus; MRSA, BK strain 63777, CC 45, MRSA): 6 µM (≈ 1.92 µg/mL)
MIC (Staphylococcus aureus; MRSA, methicillin-resistant Staphylococcus aureus (MRSA), abstract): 6 µM (≈ 1.92 µg/mL)
MIC (Staphylococcus aureus; MSSA / NCTC 8325, BK strain 21189, CC 8, MSSA (NCTC 8325)): 12 µM (≈ 3.85 µg/mL)
MIC (Staphylococcus aureus; MSSA, BK strain 73239, Mupirocin R): 1.5 µM (≈ 0.481 µg/mL)
MIC (Staphylococcus aureus; MSSA, BK strain 73242, Mupirocin R): 3 µM (≈ 0.961 µg/mL)
MIC (Staphylococcus aureus; MSSA, BK strain 73250, Mupirocin R): 3 µM (≈ 0.961 µg/mL)
MIC (Staphylococcus aureus; MSSA, BK strain 73267, Mupirocin R): 6 µM (≈ 1.92 µg/mL)
MIC (Staphylococcus aureus; MSSA, BK strain 73269, Mupirocin R): 6 µM (≈ 1.92 µg/mL)
MIC (Staphylococcus aureus; MSSA, BK strain 73336, Mupirocin R): 12 µM (≈ 3.85 µg/mL)
MIC (Staphylococcus aureus; MSSA, BK strain 73337, Mupirocin R): 3 µM (≈ 0.961 µg/mL)
MIC90 (Staphylococcus aureus; for 29 of 31 MRSA strains, read-out: MIC90 and MIC50): 6 µM (≈ 1.92 µg/mL)
MIC (Staphylococcus aureus; laboratory S. aureus strain 8325): 12 µM (≈ 3.85 µg/mL)
MIC [2]: > 100 µM
MIC [3]: > 100 µM
complete inhibition of translation [4]: complete inhibition was not achieved
MIC (S. lentus; BK strain 26639, Methicillin R): 6 µM (≈ 1.92 µg/mL)
MIC (S. lentus; Mammaliicoccus lentus, BK strain 26191): 6 µM (≈ 1.92 µg/mL)
dermonecrosis as a result of S. aureus infection (area over time) [5]: able to reduce dermonecrosis
bacterial burden in punch biopsies [5]: not statistically significant (P = 0.0575)
MIC (S. haemolyticus): 12 µM (≈ 3.85 µg/mL)
in-life observations [6]: exhibited hunched postures; and were lethargic
MIC (S. warneri; BK strain 26202): 6 µM (≈ 1.92 µg/mL)
MIC (S. warneri; Staphylococcus warneri, BK strain 24473): 6 µM (≈ 1.92 µg/mL)
MIC (S. simulans): 6 µM (≈ 1.92 µg/mL)
MIC90 [7]: 6 µM (≈ 1.92 µg/mL)
MIC (S. gallinarum): 12 µM (≈ 3.85 µg/mL)
MIC (S. cohnii): 12 µM (≈ 3.85 µg/mL)
activity at ERβ receptor (ERβ receptor): antagonist
depletion of the compound in liver microsomes [8]: no depletion
MIC (S. caprae): 6 µM (≈ 1.92 µg/mL)
Clast [9]: 532 ng/mL
inhibition of growth of E. coli (E. coli): No inhibition
MIC (S. pseudintermedius; BK strain 24474): 6 µM (≈ 1.92 µg/mL)
MIC (S. pseudintermedius; BK strain 25938): 6 µM (≈ 1.92 µg/mL)
MIC (S. pseudintermedius; BK strain 26190): 12 µM (≈ 3.85 µg/mL)
MIC (S. saprophyticus; BK strain 26195): 6 µM (≈ 1.92 µg/mL)
MIC (S. saprophyticus; Staphylococcus saprophyticus, BK strain 26194): 6 µM (≈ 1.92 µg/mL)
MIC (S. aureus; ATCC25923): 6.25 µM (≈ 2 µg/mL)
MIC (S. aureus; ATCC35556): 6.25 µM (≈ 2 µg/mL)
MIC (S. aureus; ATCC 43300 / MRSA, S. aureus mecA + (MRSA) (ATCC 43300), Gram-positive, read-out: MIC): 6.25 µM
MIC (S. sciuri; BK strain 26200): 6 µM (≈ 1.92 µg/mL)
MIC (S. sciuri; Mammaliicoccus sciuri, BK strain 26199): 6 µM (≈ 1.92 µg/mL)
inhibition at 6 µM (B. subtilis): 97%
MIC (S. xylosus): 6 µM (≈ 1.92 µg/mL)
MIC [10]: > 100 µM
MIC (S. lugdunensis; BK strain 28088, Methicillin R): 6 µM (≈ 1.92 µg/mL)
MIC (S. lugdunensis; Staphylococcus lugdunensis, BK strain 26192): 6 µM (≈ 1.92 µg/mL)
MIC (S. epidermidis; BK strain 26974, Methicillin R): 6 µM (≈ 1.92 µg/mL)
MIC (S. epidermidis; Staphylococcus epidermidis, BK strain 21192, Methicillin R): 6 µM (≈ 1.92 µg/mL)
MIC (S. capitis; BK strain 22034): 12 µM (≈ 3.85 µg/mL)
MIC (S. capitis; BK strain 24463): 6 µM (≈ 1.92 µg/mL)
AUC(0-inf) (in vivo): 171 µg·h/mL
half-life (in vivo): 2.1 h
concentration at 7 h (in vivo; Clast): 733 ng/mL
depletion of the compound in liver microsomes [11]: no depletion

C/C(=C\C(=O)OCCCCCCCCC(=O)O)C[C@@H]1OC[C@H](C[C@@H]2O[C@H]2[C@@H](C)[C@H](C)O)[C@@H](O)[C@H]1O [mupirocin, reference compound]
dermonecrosis as a result of S. aureus infection (area over time) [5]: not having a significant effect on dermonecrosis
bacterial burden in punch biopsies [5]: significantly reduced the bacterial burden
